Data taken from US20260184807A1, “Methods for Treating Rheumatoid Arthritis Using a Syndecan-1 Inhibitor or Syntenin-1 Inhibitor” (The United States Government as represented by the …, priority 2022, published 2026).

Tested on: RA monocyte-differentiated MΦs
Test: CD14+CD86+GLUT1+ MΦ frequency by flow cytometry after Syntenin-1
Assay type: cell-based, human
Settings: Syntenin-1 1000 ng/mL, 24 h; IL5Ra 2 μg/mL, PDZ1i 10 μM, mTORi 1 μM; FIGS. 3H, 3I
Protocol: (B, C) RA MΦs were treated with PBS (ctrl) or Syntenin-1 (1000 ng/mL) for 6 hours and transcription levels of HIF1α (n=10) (FIG. 3B). GLUT1, RAPTOR, HK2, PFK2, PDK1, PKM2 (FIG. 3C) were quantified by qRT-PCR (n=6). […] FIGS. 3H, 3I) after 24 hours impact of treatment was determined on CD14+CD86+ GLUT1+ frequency by flow cytometry (n=4-5). […] Data are presented as mean±SEM; significant differences were determined by Mann-Whitney test, Student's t-test, two-way-ANOVA, or one-way ANOVA. *p<0.05, **p<0.01, ***p<0.001, ****p<0.0001. ANOVA, analysis of variance.
Flow cytometry. Depending on the assay negatively selected human monocytes or human peripheral blood mononuclear cells from Rheumatoid Arthritis patients were stained with anti-CD14, anti-CD86, anti-CD206, anti-CD4 (BioLegend Inc.), or GLUT1 (Novus Biologicals) fluorescently labeled antibodies. Prior to intracellular staining, cells were stimulated with PMA (100 ng/ml) and ionomycin (1.5 μM; both Sigma-Aldrich) in the presence of Brefeldin A (eBioscience, San Diego, USA) for 3-4 h. To exclude dead cells, cells were stained by the ZombieViolet Fixable Viability Kit (BioLegend Inc.). […]
Syntenin-1 stimulation and inhibition. […] Cells were subsequently harvested in TRIzol reagent (Life Technologies) or RIPA buffer (Cell Signaling Technology) for mRNA quantification and western blot analysis; conditioned media was collected for ELISA.

CO[C@H]1C[C@@H]2CC[C@@H](C)[C@@](O)(O2)C(=O)C(=O)N2CCCC[C@H]2C(=O)O[C@H]([C@H](C)C[C@@H]2CC[C@@H](OCCO)[C@H](OC)C2)CC(=O)[C@H](C)/C=C(\C)[C@@H](O)[C@@H](OC)C(=O)[C@H](C)C[C@H](C)/C=C/C=C/C=C/1C [mTORi, Everolimus]
Syntenin-1 reconfiguration of naïve cells into RA CD14+CD86+GLUT1+MΦs: exclusively impaired
